According to ChEMBL document CHEMBL4725456, “Therapeutic Potential of Autotaxin Inhibitors in Treatment of Interstitial Lung Diseases” (ACS Med Chem Lett, 2020):

Experiment: In vivo inhibition of ATX in rat assessed as reduction in plasma LPA levels at 5 mg/kg, po measured after 8 hrs by LC-MS analysis relative to control
Assay type: functional

SMILES | inhibition in vivo at 5 mg/kg [%]
COc1ccc(COc2ccc(NCc3ccc(N4CCN(C(C)=O)CC4)cc3)nn2)cn1 | 98.3
CC(=O)N1CCN(c2ccc(CNc3ccc(OCc4cccc(C#N)c4)nn3)cc2)CC1 | 95.7
